According to patent US20230117034A1, “PYRAZOLOTRIAZINES” (Bayer Aktiengesellschaft, priority 2019, published 2023):

What was measured:
[1] = tested on: MDA-MB-231, human breast cancer cells; experiment: Proliferation assay MDA-MB-231 (crystal violet, 4 days); format: cell-based; details: Homo sapiens, MDA-MB-231, 96 h, MDA-MB-231 cells, median, read-out: Prolif-MDA MB-231, IC50-[mol/l] (median)
Protocol: Human tumour cells were originally obtained from the American Type Culture Collection (ATCC), or from the Deutsche Sammlung von Mikroorganismen und Zellkulturen (DSMZ, German Collection of Microorganisms and Cell Cultures). Cultivated tumour cells (CAL-120, human breast adenocarcinoma cells, DSMZ ACC-459; MDA-MB-231, human breast cancer cells, ATCC HTB-26) were plated at a density of 4,000 cells/well in a 96-well multititer plate in 200 microL of their respective growth medium supplemented 10% fetal calf serum. After 24 hours, the cells of one plate (zero-point plate) were stained with crystal violet (see below), while the medium of the other plates was supplemented with the test substances in various concentrations (0 micromol/L, as well as in the range of 0.01-10 micromol/L; the final concentration of the solvent dimethyl sulfoxide was adjusted to 0.1%) using a Tecan HP D300 Digital Dispenser. The cells were incubated for 4 days in the presence of test substances. Cell proliferation was determined by staining the cells with crystal violet: the cells were fixed by adding 20 microL/measuring point of an 11% glutaric aldehyde solution for 15 minutes at room temperature. After three washing cycles of the fixed cells with water, the plates were dried at room temperature. The cells were stained by adding 100 microL/measuring point of a 0.1% crystal violet solution (pH 3.0). After three washing cycles of the stained cells with water, the plates were dried at room temperature. The dye was dissolved by adding 100 microL/measuring point of a 10% acetic acid solution. The extinction was determined by photometry at a wavelength of 595 nm. The change of cell number, in percent, was calculated by normalization of the measured values to the extinction values of the zero-point plate (=0%) and the extinction of the untreated (0 μM) cells (=100%). The IC50 values (inhibitory concentration at 50% of maximal effect) were determined by means of a 4 parameter fit.

CDK2/CycE = target: T1, CDK2/CycE (Homo sapiens, UniProt P24941); experiment: CDK2/CycE kinase assay (TR-FRET, 2 mM ATP); format: biochemical; details: 2 mM ATP (high ATP); median; read-out: CDK2/CyclinE, 2 mM ATP (high ATP), IC50 (median)
T1 construct: purchased ProQinase GmbH (Freiburg, Germany); host or cells: insect cells (Sf9)
Description: CDK2/CycE-inhibitory activity of compounds of the present invention was quantified employing the CDK2/CycE TR-FRET assay as described in the following paragraphs.
Recombinant fusion proteins of GST and human CDK2 and of GST and human CycE, expressed in insect cells (Sf9) and purified by Glutathion-Sepharose affinity chromatography, were purchase from ProQinase GmbH (Freiburg, Germany). As substrate for the kinase reaction biotinylated peptide biotin-Ttds-YISPLKSPYKISEG (C-terminus in amid form) was used which can be purchased e.g. form the company JERINI peptide technologies (Berlin, Germany).
For the assay 50 nanoL of a 100 fold concentrated solution of the test compound in DMSO was pipetted into a black low volume 384 well microtiter plate or a black 1536 well microtiter plate (both Greiner Bio-One, Frickenhausen, Germany), 2 microL of a solution of CDK2/CycE in aqueous assay buffer [50 millimol/L Tris/HCl pH 8.0, 10 millimol/L MgCl2, 1.0 millimol/L dithiothreitol, 0.1 millimol/L sodium ortho-vanadate, 0.01% (v/v) Nonidet-P40 (Sigma)] were added and the mixture was incubated for 15 min at 22° C. to allow pre-binding of the test compounds to the enzyme before the start of the kinase reaction. Then the kinase reaction was started by the addition of 3 microL of a solution of adenosine-tri-phosphate (ATP, 3.33 millimol/L=>final conc. in the 5 microL assay volume is 2 millimol/L) and substrate (1.25 micromol/L=>final conc. in the 5 microL assay volume is 0.75 micromol/L) in assay buffer and the resulting mixture was incubated for a reaction time of 25 min at 22° C. The concentration of CDK2/CycE was adjusted depending of the activity of the enzyme lot and was chosen appropriate to have the assay in the linear range, typical concentrations were in the range of 10 ng/ml. The reaction was stopped by the addition of 3 microL of a solution of TR-FRET detection reagents (0.333 micromol/L streptavidine-XL665 [Cisbio Bioassays, Codolet, France] and 1.67 nanomol/L anti-RB(pSer807/pSer8l 1)-antibody from BD Pharmingen [#558389] and 2 nanomol/L LANCE EU-W1024 labeled anti-mouse IgG antibody [Perkin-Elmer, product no. AD0077, as an alternative a Terbium-cryptate-labeled anti-mouse IgG antibody from Cisbio Bioassays can be used]) in an aqueous EDTA-solution (167 millimol/L EDTA, 0.2% (w/v) bovine serum albumin in 100 millimol/L HEPES pH 7.5).
The resulting mixture was incubated 1 h at 22° C. to allow the formation of complex between the phosphorylated biotinylated peptide and the detection reagents. Subsequently the amount of phosphorylated substrate was evaluated by measurement of the resonance energy transfer from the Eu-chelate to the streptavidine-XL. Therefore, the fluorescence emissions at 620 nm and 665 nm after excitation at 350 nm was measured in a TR-FRET reader, e.g. a Pherastar (BMG Labtechnologies, Offenburg, Germany) or a Viewlux (Perkin-Elmer). The ratio of the emissions at 665 nm and at […] was taken as the measure for the amount of phosphorylated substrate. The data were normalised (enzyme reaction without inhibitor=0% inhibition, all other assay components but no enzyme=100% inhibition).

IC50 [1] [nM] | IC50 (CDK2/CycE) [nM] | Structure (SMILES)
25.3 | 2280 | Brc1cnn2c(NCc3nc4ccccc4[nH]3)nc(N3CCOCC3)nc12 [Example 4, N-[(1H-benzimidazol-2-yl)methyl]-8-bromo-2-(morpholin-4-yl)pyrazolo[1,5-a][1,3,5]triazin-4-amine]
16.1 | 2010 | CC(C)c1cnn2c(NCc3nc4ccccc4[nH]3)nc(N3CCOC[C@@H]3C)nc12 [Example 6, N-[(1H-benzimidazol-2-yl)methyl]-2-[(3S)-3-methylmorpholin-4-yl]-8-(propan-2-yl)pyrazolo[1,5-a][1,3,5]triazin-4-amine]
38.9 | 4360 | Cc1cccc2[nH]c(CNc3nc(N4CCOCC4)nc4c(Br)cnn34)nc12 [Example 150, 8-bromo-N-[(4-methyl-1H-benzimidazol-2-yl)methyl]-2-(morpholin-4-yl)pyrazolo[1,5-a][1,3,5]triazin-4-amine]
539 | 14700 | FC(F)(F)CN1CCN(c2nc(NCc3nc4ccccc4[nH]3)n3ncc(Br)c3n2)CC1 [Example 139, N-[(1H-benzimidazol-2-yl)methyl]-8-bromo-2-[4-(2,2,2-trifluoroethyl)piperazin-1-yl]pyrazolo[1,5-a][1,3,5]triazin-4-amine]
4.24 | 5300 | Cc1ccc2[nH]c(CNc3nc(N4CCN(C)CC4)nc4c(Br)cnn34)nc2c1 [Example 158, 8-bromo-N-[(5-methyl-1H-benzimidazol-2-yl)methyl]-2-(4-methylpiperazin-1-yl)pyrazolo[1,5-a][1,3,5]triazin-4-amine]
95 | > 20000 | CN1CCN(c2nc(NCc3nc4c(F)cccc4[nH]3)n3ncc(C4CC4)c3n2)CC1 [Example 165, 8-cyclopropyl-N-[(4-fluoro-1H-benzimidazol-2-yl)methyl]-2-(4-methylpiperazin-1-yl)pyrazolo[1,5-a][1,3,5]triazin-4-amine]
– | 3240 | Fc1cccc2[nH]c(CNc3nc(N4CCOCC4)nc4c(Br)cnn34)nc12 [Example 97, 8-bromo-N-[(4-fluoro-1H-benzimidazol-2-yl)methyl]-2-(morpholin-4-yl)pyrazolo[1,5-a][1,3,5]triazin-4-amine]
– | 826 | Fc1cc(F)cc(-c2nnc(CNc3nc(N4CCOCC4)nc4c(Br)cnn34)[nH]2)c1 [Example 105, 8-bromo-N-{[5-(3,5-difluorophenyl)-4H-1,2,4-triazol-3-yl]methyl}-2-(morpholin-4-yl)pyrazolo[1,5-a][1,3,5]triazin-4-amine]
– | 8970 | COc1ccc2[nH]c(CNc3nc(N4C[C@@H](C)O[C@@H](C)C4)nc4c(Br)cnn34)nc2c1 [Example 124, 8-bromo-2-[(2R, 6S)-2,6-dimethylmorpholin-4-yl]-N-[(5-methoxy-1H-benzimidazol-2-yl)methyl]pyrazolo[1,5-a][1,3,5]triazin-4-amine]
– | > 20000 | Fc1ccccc1-c1cnn2c(NCc3nc4ccccc4[nH]3)nc(N3CCOCC3)nc12 [Example 95, N-[(1H-benzimidazol-2-yl)methyl]-8-(2-fluorophenyl)-2-(morpholin-4-yl)pyrazolo[1,5-a][1,3,5]triazin-4-amine]

Second part, the compound before the results:

Structure (SMILES) | IC50 [1] [nM] | IC50 (CDK2/CycE) [nM]
COc1ccc2[nH]c(CNc3nc(N4CCOCC4)nc4c(Br)cnn34)nc2c1 [Example 160, 8-bromo-N-[(5-methoxy-1H-benzimidazol-2-yl)methyl]-2-(morpholin-4-yl)pyrazolo[1,5-a][1,3,5]triazin-4-amine] | 9.22 | 5170
CN1CCN(c2nc(NCc3nnc(-c4cccc(F)c4)[nH]3)n3ncc(Br)c3n2)CC1 [Example 136, 8-bromo-N-{[5-(3-fluorophenyl)-4H-1,2,4-triazol-3-yl]methyl}-2-(4-methylpiperazin-1-yl)pyrazolo[1,5-a][1,3,5]triazin-4-amine] | 26.4 | 3450
CC1CN(C)CCN1c1nc(NCc2nc3ccccc3[nH]2)n2ncc(Br)c2n1 (stereo not drawn) [Example 156, N-(1H-benzimidazol-2-ylmethyl)-8-bromo-2-(2,4-dimethylpiperazin-1-yl)pyrazolo[1,5-a][1,3,5]triazin-4-amine] | 20.5 | 3480
COc1ccc2[nH]c(CNc3nc(N4CCN(C)CC4)nc4c(Br)cnn34)nc2c1 [Example 161, 8-bromo-N-[(5-methoxy-1H-benzimidazol-2-yl)methyl]-2-(4-methylpiperazin-1-yl)pyrazolo[1,5-a][1,3,5]triazin-4-amine] | 11.3 | –
CC(=O)NCCCc1cccc2[nH]c(CNc3nc(N4CCOCC4)nc4c(Br)cnn34)nc12.O=CO [Example 115, formic acid-N-{3-[2-({[8-bromo-2-(morpholin-4-yl)pyrazolo[1,5-a][1,3,5]triazin-4-yl]amino}methyl)-1H-benzimidazol-4-yl]propyl}acetamide (1/1)] | – | 10700
Brc1cnn2c(NCc3nc4ccccc4[nH]3)nc(N3CCOCC3C3CC3)nc12 (stereo not drawn) [Example 117, N-(1H-benzimidazol-2-ylmethyl)-8-bromo-2-(3-cyclopropylmorpholin-4-yl)pyrazolo[1,5-a][1,3,5]triazin-4-amine] | – | 4660
Cc1ccc(-c2nnc(CNc3nc(N4CCOCC4)nc4c(Br)cnn34)[nH]2)cc1F [Example 98, 8-bromo-N-{[5-(3-fluoro-4-methylphenyl)-4H-1,2,4-triazol-3-yl]methyl}-2-(morpholin-4-yl)pyrazolo[1,5-a][1,3,5]triazin-4-amine] | – | 2030
CCN1CCN(c2nc(NCc3nc4ccccc4[nH]3)n3ncc(Br)c3n2)CC1 [Example 137, N-[(1H-benzimidazol-2-yl)methyl]-8-bromo-2-(4-ethylpiperazin-1-yl)pyrazolo[1,5-a][1,3,5]triazin-4-amine] | 192 | –
c1cncc(-c2cnn3c(NCc4nc5ccccc5[nH]4)nc(N4CCOCC4)nc23)c1 [Example 108, N-[(1H-benzimidazol-2-yl)methyl]-2-(morpholin-4-yl)-8-(pyridin-3-yl)pyrazolo[1,5-a][1,3,5]triazin-4-amine] | – | > 20000
CC1(C)CN(c2nc(NCc3nnc(-c4ccccc4)[nH]3)n3ncc(C4CC4)c3n2)CCO1 [Example 94, 8-cyclopropyl-2-(2,2-dimethylmorpholin-4-yl)-N-[(5-phenyl-4H-1,2,4-triazol-3-yl)methyl]pyrazolo[1,5-a][1,3,5]triazin-4-amine] | – | > 20000
CC1(C)CN(c2nc(NCc3nc4ccccc4[nH]3)n3ncc(C4CC4)c3n2)CCO1 [Example 123, N-[(1H-benzimidazol-2-yl)methyl]-8-cyclopropyl-2-(2,2-dimethylmorpholin-4-yl)pyrazolo[1,5-a][1,3,5]triazin-4-amine] | – | > 20000
